Data published in US20220265712A1, “POPULATIONS OF NATURAL KILLER CELLS FOR TREATING CANCERS” (CELULARITY INC., priority 2019, published 2022).
Where two headings read alike, the source gives them in different places.

Legend:
[1] = test system: CD34+ cells; test: NK cell expansion from CD34+ cells cultured with CRL compounds (three-stage NK culture, Day 35); format: cell-based, human; settings: 10 μM; for expansion compared to SR1 / cell expansion, rank among all the compounds: Day 35; for expansion compared to SR1: SR1 10 μM positive control; for expansion, differentiation and cytotoxicity profiles compared to SR1: PNK-007 culture
Source text: (§1) UCB CD34+ cells were cultivated in presence of cytokines including thrombopoietin, SCF, Flt3 ligand, IL-7, IL-15 and IL-2 for 35 days to produce three-stage NK cells, as described in Example 1. Multi-color flow cytometry was used to determine the phenotypic characteristics of three-stage NK cells.
(§2) For biological testing, the compounds were provided to culture to evaluate their effects on NK cell expansion and differentiation. Specifically, donors of CD34+ cells (StemCell Technology) were thawed and expanded in vitro following NK culture protocol. During the first 14 days of the culture, each CRL compounds was dissolved in DMSO and added to the culture at 10 μM concentration. SR1 (at 10 μM) served as a positive control compound, while DMSO alone without any compound served as a negative control. At the end of the culture on Day 35, cell expansion, natural killer (NK) cell differentiation and cytotoxicity of the cells against K562 tumor cell line were characterized. Due to the large number of the compounds, the testing was performed in two experiments, CRL1-11 and CRL 12-22. The same donors were used for each experiment. Positive and negative controls were also included in both experiments.

[2] = test system: K562 tumor cells; test: Cytotoxicity assay of compound cultured cells against K562 tumor cells; format: cell-based; settings: 10:1 effector to target ratio; both donors
Method: as §2
Cytotoxicity assay was run using compound cultured cells against K562 tumor cells at 10:1 effector to target ratio (FIG. 5) to evaluate cell functions.

[3] = test system: CD34+ cells; test: NK cell differentiation of compound cultured cells (flow cytometry); format: cell-based, human; settings: compared to SR1
Source text: as §1, §2

[4] = test system: CD34 cells; test: CD34 cell expansion at Day 14 of the culture; format: cell-based, human; settings: 10 μM
Method: as §2

[5] = test system: NDMM patients; settings: cited from earlier work

Cc1cncc(-c2nc(NCCc3c[nH]c4ccccc34)c3scc(C(C)C)c3n2)c1 [CRL21, N-(2-(1H-indol-3-yl)ethyl)-7-isopropyl-2-(5-methylpyridin-3-yl)thieno[3,2-d]pyrimidin-4-amine]
expansion compared to SR1 [1]: slightly less expansion compared to SR1
killing activities compared to cells cultured with SR1 [2]: increased killing activities of the cells
CD56+/CD11a+ subpopulation [3]: increased CD56+/CD11a+ subpopulation

CC(C)c1csc2c(NCCc3c[nH]c4ccccc34)nc(-c3cncc(C#N)c3)nc12 [CRL17, 5-(4-((2-(1H-indol-3-yl)ethyl)amino)-7-isopropylthieno[3,2-d]pyrimidin-2-yl)nicotinonitrile]
expansion compared to SR1 [1]: slightly less expansion compared to SR1
killing activities compared to cells cultured with SR1 [2]: increased killing activities of the cells
CD56+/CD11a+ subpopulation [3]: increased CD56+/CD11a+ subpopulation

Cc1cncc(-c2nc(NCCc3c[nH]c4ccccc34)c3occc3n2)c1 [CRL20, N-(2-(1H-indol-3-yl)ethyl)-2-(5-methylpyridin-3-yl)furo[3,2-d]pyrimidin-4-amine]
cell expansion, rank among all the compounds [1]: supported cell expansion the best
expansion, differentiation and cytotoxicity profiles compared to SR1 [1]: very similar expansion, differentiation and cytotoxicity profiles as SR1
CD34 cell expansion [4]: achieved the highest CD34 cell expansion

Nc1cccc2c1CN(C1CCC(=O)NC1=O)C2=O (stereo not shown) [lenalidomide, 3-(4′ aminoisoindoline-1′-one)-1-piperidine-2,6-dione]
ORR (VGPR or better) ([5]; 1 year post ASCT): 48%
ORR (VGPR or better) ([5]; 2 year post ASCT): 36%
hazard ratio for TTP versus placebo ([5]; 95% CI 0.46-0.71, p<0.0001): 0.57
median TTP ([5]; 95% CI 44.2-73.3, not accounting for crossover): 57.3 months

CC(C)c1csc2c(NCCc3c[nH]c4ccccc34)nc(-c3cncc(F)c3)nc12 [CRL18, N-(2-(1H-indol-3-yl)ethyl)-2-(5-fluoropyridin-3-yl)-7-isopropylthieno[3,2-d]pyrimidin-4-amine]
expansion compared to SR1 [1]: slightly less expansion compared to SR1
killing activities compared to cells cultured with SR1 [2]: increased killing activities of the cells
CD56+/CD11a+ subpopulation [3]: increased CD56+/CD11a+ subpopulation

N#Cc1cncc(-c2nc(NCCc3c[nH]c4ccccc34)c3occc3n2)c1 [CRL22, 5-(4-((2-(1H-indol-3-yl)ethyl)amino)furo[3,2-d]pyrimidin-2-yl)nicotinonitrile]
cell expansion, rank among all the compounds [1]: supported cell expansion the best
expansion, differentiation and cytotoxicity profiles compared to SR1 [1]: very similar expansion, differentiation and cytotoxicity profiles as SR1
CD34 cell expansion [4]: achieved the highest CD34 cell expansion

Fc1cncc(-c2nc(NCCc3c[nH]c4ccccc34)c3occc3n2)c1 [CRL19, N-(2-(1H-indol-3-yl)ethyl)-2-(5-fluoropyridin-3-yl)furo[3,2-d]pyrimidin-4-amine]
cell expansion, rank among all the compounds [1]: supported cell expansion the best
expansion, differentiation and cytotoxicity profiles compared to SR1 [1]: very similar expansion, differentiation and cytotoxicity profiles as SR1
CD34 cell expansion [4]: achieved the highest CD34 cell expansion
